According to ChEMBL document CHEMBL1201862, “PubChem BioAssay data set” (2004):
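Assay format: 96-well plates, 48-hour exposure. GI50: concentration for 50% inhibition of growth.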 The source made the active and inactive calls. Cut-off read from the data, not from the text of the source: active = GI50 up to about 1.1 µM and inactive = higher.

What was measured:
Assay in all cases: NCI anticancer screen, dose series, 48 h
[1] = system: SNB-75
[2] = system: HL-60
[3] = system: MDA-MB-231
[4] = system: A549
[5] = system: EKVX
[6] = system: IGROV-1
[7] = system: UACC-62
[8] = system: KM12
[9] = system: U-251
[10] = system: CAKI-1
[11] = system: HT-29
[12] = system: SF-539
[13] = system: SK-MEL-28
[14] = system: UACC-257
[15] = system: SF-268
[16] = system: M14
[17] = system: SW-620
[18] = system: SNB-19
[19] = system: OVCAR-4

Compound	GI50 [1]	GI50 [2]	GI50 [3]	GI50 [4]	GI50 [5]	GI50 [6]	GI50 [7]	GI50 [8]	GI50 [9]	GI50 [10]	GI50 [11]	GI50 [12]	GI50 [13]	GI50 [14]	GI50 [15]	GI50 [16]	GI50 [17]	GI50 [18]	GI50 [19]
Cc1cn2c(/C=C3/C(=O)Nc4ccccc43)c(C)nc2s1	3.79 µM (inactive)	0.321 µM (active)	1.48 µM (inactive)	2.02 µM (inactive)	6.11 µM (inactive)	0.634 µM (active)	1.33 µM (inactive)	0.261 µM (active)	2.24 µM (inactive)	3.07 µM (inactive)	0.605 µM (active)	1.33 µM (inactive)	5.96 µM (inactive)	2.78 µM (inactive)	3.98 µM (inactive)	0.991 µM (active)	0.504 µM (active)	3.32 µM (inactive)	–
CC(=O)CC(C)(C)NC(=O)[C@@]1(O)CC[C@H]2[C@@H]3CCC4=CC(=O)CC[C@@H]4[C@H]3CC[C@@]21C	> 100 µM (inactive)	70.3 µM (inactive)	> 100 µM (inactive)	> 100 µM (inactive)	> 100 µM (inactive)	> 100 µM (inactive)	> 100 µM (inactive)	> 100 µM (inactive)	> 100 µM (inactive)	–	> 100 µM (inactive)	> 100 µM (inactive)	> 100 µM (inactive)	> 100 µM (inactive)	> 100 µM (inactive)	> 100 µM (inactive)	> 100 µM (inactive)	> 100 µM (inactive)	> 100 µM (inactive)
Cc1cc(N(CCC#N)CCC#N)ccc1C(/N=N/c1ccc([N+](=O)[O-])cc1)=N\NC(=O)c1ccccc1	48.4 µM (inactive)	32.1 µM (inactive)	58.7 µM (inactive)	57.1 µM (inactive)	63.4 µM (inactive)	47 µM (inactive)	31 µM (inactive)	40.8 µM (inactive)	42.3 µM (inactive)	72.1 µM (inactive)	24.5 µM (inactive)	15 µM (inactive)	–	61.8 µM (inactive)	32.3 µM (inactive)	86.9 µM (inactive)	–	40.6 µM (inactive)	61 µM (inactive)
O=C(O)c1c2c(cc3c1CC1(Cc4cc5c(cc4C1=O)CCC5)C3)CCC2 (stereo not given)	> 100 µM (inactive)	65.2 µM (inactive)	> 100 µM (inactive)	54.8 µM (inactive)	87.5 µM (inactive)	> 100 µM (inactive)	> 100 µM (inactive)	89.5 µM (inactive)	85.9 µM (inactive)	–	> 100 µM (inactive)	> 100 µM (inactive)	26.9 µM (inactive)	56.6 µM (inactive)	> 100 µM (inactive)	> 100 µM (inactive)	> 100 µM (inactive)	> 100 µM (inactive)	52.2 µM (inactive)
CC(=O)c1cc2c(s1)C(=O)c1scc(C(C)=O)c1C2=O	0.598 µM (active)	–	0.225 µM (active)	1.41 µM (inactive)	0.485 µM (active)	0.514 µM (active)	0.26 µM (active)	1.39 µM (inactive)	0.228 µM (active)	0.929 µM (active)	1.81 µM (inactive)	1.21 µM (inactive)	0.673 µM (active)	0.223 µM (active)	0.319 µM (active)	0.736 µM (active)	0.394 µM (active)	1.15 µM (inactive)	0.197 µM (active)
C=C(CCC/C(C)=C/C=C/[C@H](C)CCCc1ccoc1)C[C@@H]1OC(=O)[C@H](C)[C@@H]1O	8.75 µM (inactive)	–	9.89 µM (inactive)	5.7 µM (inactive)	9.84 µM (inactive)	11.2 µM (inactive)	7.98 µM (inactive)	9.79 µM (inactive)	11.8 µM (inactive)	8.99 µM (inactive)	15.1 µM (inactive)	8.63 µM (inactive)	7.41 µM (inactive)	7.18 µM (inactive)	9.2 µM (inactive)	8.81 µM (inactive)	12.8 µM (inactive)	8.81 µM (inactive)	4.73 µM (inactive)
Cc1nc(C)c(N2CCN(S(=O)(=O)N(Cc3ccccc3)Cc3ccccc3)CC2)c(O)n1	5.31 µM (inactive)	> 100 µM (inactive)	> 35.7 µM (inactive)	> 100 µM (inactive)	> 60 µM (inactive)	16.8 µM (inactive)	5.12 µM (inactive)	> 100 µM (inactive)	5.21 µM (inactive)	–	> 100 µM (inactive)	12.5 µM (inactive)	> 100 µM (inactive)	> 100 µM (inactive)	6.85 µM (inactive)	> 100 µM (inactive)	> 100 µM (inactive)	8.91 µM (inactive)	0.836 µM (active)
c1cc(NNc2cccc(-c3nnn[nH]3)c2)cc(-c2nnn[nH]2)c1	> 100 µM (inactive)	–	> 100 µM (inactive)	> 100 µM (inactive)	> 100 µM (inactive)	> 100 µM (inactive)	> 100 µM (inactive)	> 100 µM (inactive)	> 100 µM (inactive)	> 100 µM (inactive)	> 100 µM (inactive)	> 100 µM (inactive)	> 100 µM (inactive)	> 100 µM (inactive)	> 100 µM (inactive)	> 100 µM (inactive)	> 100 µM (inactive)	> 100 µM (inactive)	> 100 µM (inactive)
Nc1nc(Cl)cc(NCC2CC(O)(CO)C2)n1 (stereo not given)	> 100 µM (inactive)	> 100 µM (inactive)	> 100 µM (inactive)	> 100 µM (inactive)	> 100 µM (inactive)	> 100 µM (inactive)	> 100 µM (inactive)	> 100 µM (inactive)	> 100 µM (inactive)	> 100 µM (inactive)	> 100 µM (inactive)	> 100 µM (inactive)	> 100 µM (inactive)	> 100 µM (inactive)	> 100 µM (inactive)	–	> 100 µM (inactive)	–	> 100 µM (inactive)
COC(=O)[C@]12CSC[C@H]1C[C@H](c1ccccc1OC)N2	> 100 µM (inactive)	–	> 100 µM (inactive)	> 100 µM (inactive)	> 100 µM (inactive)	85.9 µM (inactive)	> 100 µM (inactive)	> 100 µM (inactive)	> 100 µM (inactive)	> 100 µM (inactive)	–	> 100 µM (inactive)	> 100 µM (inactive)	> 100 µM (inactive)	> 100 µM (inactive)	> 100 µM (inactive)	> 100 µM (inactive)	> 100 µM (inactive)	> 100 µM (inactive)
Cc1cc(C)nc(NS(=O)(=O)c2ccc(NC(=O)c3cccc4c(NNc5ccc(S(=O)(=O)N=C(N)N)cc5)c5ccccc5nc34)cc2)n1	41.9 µM (inactive)	> 50 µM (inactive)	> 50 µM (inactive)	> 50 µM (inactive)	> 50 µM (inactive)	> 50 µM (inactive)	> 50 µM (inactive)	> 50 µM (inactive)	> 50 µM (inactive)	> 50 µM (inactive)	> 50 µM (inactive)	> 50 µM (inactive)	–	> 50 µM (inactive)	> 50 µM (inactive)	> 50 µM (inactive)	> 50 µM (inactive)	> 50 µM (inactive)	> 50 µM (inactive)
